Marks after values point to notes of the source that are not given here.

What all share (assay type): cell-based
One data set has as its system Kasumi-7 cells. Put plainly: Human acute lymphoblastic leukemia cell line Kasumi-7 proliferation suppression test. The conditions noted are these: 72 h, compound 10 μM, 3 days, WST-8, read-out: cell survival rate (% of control) Kasumi-7. The text has this:
Example 55: Human Acute Lymphoblastic Leukemia Cell Line Kasumi-7 Proliferation Suppression Test
Kasumi-7 cells (NIBIOHN, JCRB1401) were suspended in 20% fetal calf serum (Thermo Fisher Scientific, Inc.)-containing RPMI1640 medium (ATCC, hereinafter abbreviated as medium C), and diluted as appropriate with 0.4% trypan blue solution (Sigma-Aldrich Co. LLC.). The number of viable cells was counted with a hemocytometer (Funakoshi Co., Ltd.). A cell suspension obtained by diluting with medium C such that the value obtained was 1.3×10^5 cells/mL was dispensed into a Falcon 96 well flat bottom plate (Corning Incorporated) at 75 μL/well, and culture was started at 37° C. under 5% CO2 stream. The next day, a solution obtained by diluting 4 mM DMSO solution of the test compound 100-fold with medium C was added by 25 μL to each well (final concentration of test compound 10 μM). 25 μL of a solution obtained by diluting DMSO 100-fold with medium C was added to the control well. After culturing at 37° C. in a 5% CO2 stream for 3 days, the cell proliferation activity was measured according to the instruction manual attached to WST-8 Kit (KISHIDA CHEMICAL Co., Ltd.).

The subject of data set [1] is human peripheral blood mononuclear cells (PBMC). In words: Cytotoxicity test using human peripheral blood mononuclear cells (PBMC). The conditions noted are these: LPS, 24 hr. The protocol: Example 56: Cytotoxicity Test Using Human Peripheral Blood Mononuclear Cells (PBMC)
Peripheral blood of a healthy adult was collected in a Venoject II vacuum blood collection tube (Terumo, containing EDTA/2Na), and then diluted two-fold with an equal volume of OTSUKA NORMAL SALINE (Otsuka Pharmaceutical Co., Ltd.). The diluted blood was mixed with Lymphoprep (AXIS-SHIELD) in half the volume of the diluted blood, dispensed into a 15 mL conical tube, and centrifuged at room temperature for 20 min (2,100 rpm). The mononuclear cells accumulated at the interface between Lymphoprep and plasma was transferred to a 50 mL conical tube, diluted with OTSUKA NORMAL SALINE, and the mononuclear cells suspension was centrifuged at room temperature for 10 min (1,150 rpm) and then the supernatant was removed. The mononuclear cells fraction obtained as a precipitate was suspended in an appropriate amount of medium A, and diluted as appropriate with 0.4% trypan blue solution (Sigma-Aldrich Co. LLC.). The number of viable cells was counted with a hemocytometer (ERMA INC.). It was diluted with medium A such that the value obtained was 5×10^5 cells/mL. On the other hand, 37.5 μL of medium A, 2.5 μL of 0.4 mg/mL test compound solution (DMSO solution 10-fold diluted with medium A), and 10 μL of 10 μg/mL lipopolysaccharide (Sigma-Aldrich Co. LLC.) solution (diluted with medium A) were each added in advance to the same well of a Falcon 96-well flat bottom plate (Corning Incorporated), and the above-mentioned cell suspension was dispensed at 50 μL/well (final concentration of test compound 10 μg/mL). 2.5 μL of DMSO diluted 10-fold with medium A was added to the control well instead of the compound solution. After culturing at 37° C. in a 5% CO2 stream for 24 hr, the cell survival rate was measured using WST-1 (DOJINDO LABORATORIES) or WST-8 kit (KISHIDA CHEMICAL Co., Ltd.) and according to each instruction manual attached thereto.

Another data set deals with Daudi cells. In words: Human Burkitt lymphoma cell line Daudi proliferation suppression test. Conditions: 72 h, compound 10 μM, 3 days, WST-8, read-out: cell survival rate (% of control) Daudi. From the text:
Example 54: Human Burkitt Lymphoma Cell Line Daudi Proliferation Suppression Test
Daudi cells (National Institutes of Biomedical Innovation, Health and Nutrition (NIBIOHN), JCRB9071) were suspended in medium B, and diluted as appropriate with 0.4% trypan blue solution (Sigma-Aldrich Co. LLC.). The number of viable cells was counted with a hemocytometer (ERMA INC.). A cell suspension obtained by diluting with medium B such that the value obtained was 1.3×10^5 cells/mL was dispensed into a Falcon 96 well flat bottom plate (Corning Incorporated) at 75 μL/well, and culture was started at 37° C. under 5% CO2 stream. The next day, a solution obtained by diluting 4 mM DMSO solution of the test compound 100-fold with medium B was added by 25 μL to each well (final concentration of test compound 10 μM). 25 μL of a solution obtained by diluting DMSO 100-fold with medium B was added to the control well. After culturing at 37° C. in a 5% CO2 stream for 3 days, the cell proliferation activity was measured according to the instruction manual attached to WST-8 Kit (KISHIDA CHEMICAL Co., Ltd.).
Background: Tetrazolium assays rely on reduction of a dye to a coloured formazan, in cell work by metabolically active cells.

A further data set relates to TNF-α production. Put plainly: Human TNF-α production suppression test (LPS-stimulated peripheral blood mononuclear cells, ELISA). Conditions: PBMC, 24 hr; for inhibition at 10 µg/mL: compound 10 μg/mL, control well = 100, read-out: TNF-α production suppressive rate (%). The protocol:
Example 50: Human TNF-α Production Suppression Test
Peripheral blood of a healthy adult was collected in a vacuum blood collection tube (Terumo, containing EDTA/2Na), and then diluted two-fold with an equal volume of OTSUKA NORMAL SALINE (Otsuka Pharmaceutical Co., Ltd.). The diluted blood was mixed with Lymphoprep (AXIS-SHIELD) in half the volume of the diluted blood, dispensed into a 15 mL conical tube, and centrifuged at room temperature for 20 min (2,100 rpm). The mononuclear cells accumulated at the interface between Lymphoprep and plasma was transferred to a 50 mL conical tube, diluted with OTSUKA NORMAL SALINE, and the mononuclear cells suspension was centrifuged at room temperature for 10 min (1,150 rpm) and then the supernatant was removed. The mononuclear cells fraction obtained as a precipitate was suspended in an appropriate amount of 10% fetal calf serum (Thermo Fisher Scientific)-containing RPMI1640 medium (Thermo Fisher Scientific, hereinafter abbreviated as medium A), and diluted as appropriate with 0.4% trypan blue solution (Sigma-Aldrich Co. LLC.). The number of viable cells was counted with a hemocytometer (ERMA INC.). It was diluted with medium A such that the value obtained was 5×10^5 cells/mL. On the other hand, 75 μL of medium A, 5 μL of 0.4 mg/mL test compound solution (DMSO solution 10-fold diluted with medium A), and 20 μL of 10 μg/mL lipopolysaccharide (Sigma-Aldrich Co. LLC.) solution (diluted with medium A) were each added in advance to the same well of a Falcon 96-well flat bottom plate (Corning Incorporated), and the above-mentioned cell suspension was dispensed at 0.1 mL/well. 5 μL of DMSO diluted 10-fold with medium A was added to the control well instead of the compound solution. After culturing at 37° C. in a 5% CO2 stream for 24 hr, the culture solution was centrifuged at 4° C., 1,000 rpm for 3 min and the supernatant was recovered. The content of TNF-α in the supernatant was measured using an ELISA kit (Peprotech) according to a conventional method. The amount of TNF-α produced in the well containing the test compound was determined with the amount of TNF-α produced in the control well as 100, and the suppression rate was calculated for each test.
(In general: An ELISA detects its analyte on a solid surface through an enzyme-linked reagent.)

[2] abbreviates: compound 10 μg/mL, WST-1 or WST-8.

In the case of `COc1c(-c2cn(C3CCC(=O)NC3=O)nn2)csc1C` (stereo not drawn) [compound 15, 3-[4-(4-methoxy-5-methylthiophen-3-yl)-1H-1,2,3-triazol-1-yl]piperidine-2,6-dione], the viability at 10 µM with Kasumi-7 cells came to 60%; with Daudi cells, 61%. Besides, the “cell survival rate (% of control) PBMC” value in data set [1] (setting [2]) is on record as 105 % of control. Further, the inhibition at 10 µg/mL in the data set with TNF-α production turned out to be 85%.

In the case of `O=C1CCC(n2cc(-c3cscc3OCc3ccc(Cl)cc3)nn2)C(=O)N1` (stereo not drawn) [compound 43, 3-{4-[4-(4-chlorobenzyloxy)thiophen-3-yl]-1H-1,2,3-triazol-1-yl}piperidine-2,6-dione], the viability at 10 µM in the data set on Kasumi-7 cells was found to be 42%; with Daudi cells it was 36%. Moreover, in data set [1] (setting [2]), the “cell survival rate (% of control) PBMC” value is recorded as 98 % of control. For the same compound, the inhibition at 10 µg/mL in the data set on TNF-α production is 87%.

For the compound `O=C1CCC(n2cc(-c3cscc3OCc3ccccc3)nn2)C(=O)N1` (stereo not drawn) [compound 32, 3-{4-[4-(benzyloxy)thiophen-3-yl]-1H-1,2,3-triazol-1-yl}piperidine-2,6-dione], the figures for the viability at 10 µM in the data set on Kasumi-7 cells and with Daudi cells were 36% and 23%, respectively. In data set [1] (setting [2]), the “cell survival rate (% of control) PBMC” value was 66 % of control. Further, the inhibition at 10 µg/mL with TNF-α production was 100%.

With `COc1ccc(COc2cscc2-c2cn(C3CCC(=O)NC3=O)nn2)cc1` (stereo not drawn) [compound 31, 3-{4-[4-(4-methoxybenzyloxy)thiophen-3-yl]-1H-1,2,3-triazol-1-yl}piperidine-2,6-dione], the figures for the viability at 10 µM in the data set with Kasumi-7 cells and in the data set with Daudi cells were 43% and 39%, respectively. For the same compound, the “cell survival rate (% of control) PBMC” value in data set [1] (3 μg/mL due to precipitation of compound in medium) was 106** % of control. The compound also yielded an inhibition at 3 µg/mL in the data set on TNF-α production (suppressive rate at 3 μg/mL) of 82%.

As to `O=C1CCC(n2cc(-c3scc4c3OCCO4)nn2)C(=O)N1` (stereo not drawn) [compound 10, 3-[4-(2,3-dihydrothieno[3,4-b][1,4]dioxin-5-yl)-1H-1,2,3-triazol-1-yl]piperidine-2,6-dione], the figures for the viability at 10 µM in the data set with Kasumi-7 cells and in the data set with Daudi cells were 72% and 85%, respectively. Further, the “cell survival rate (% of control) PBMC” value in data set [1] (setting [2]) is listed as 97 % of control. Also, the inhibition at 10 µg/mL in the data set with TNF-α production is 50%.

Regarding `CN(C)Cc1ccc(COc2cscc2-c2cn(C3CCC(=O)NC3=O)nn2)cc1.Cl` (stereo not drawn) [compound 46, 3-[4-(4-{4-[(dimethylamino)methyl]benzyloxy}thiophen-3-yl)-1H-1,2,3-triazol-1-yl]piperidine-2,6-dione hydrochloride], the viability at 10 µM in the data set on Kasumi-7 cells was 35%; in the data set with Daudi cells it was 29%. In addition, the “cell survival rate (% of control) PBMC” value in data set [1] (setting [2]) is given as 110 % of control. For the same compound, the inhibition at 10 µg/mL in the data set on TNF-α production worked out at 80%.

With `Cl.O=C1CCC(n2cc(-c3cscc3OCc3ccc(CN4CCCCC4)cc3)nn2)C(=O)N1` (stereo not drawn) [compound 42, 3-(4-{4-[4-(piperidin-1-ylmethyl)benzyloxy]thiophen-3-yl}-1H-1,2,3-triazol-1-yl)piperidine-2,6-dione hydrochloride], the viability at 10 µM turned out to be 26% in the data set with Kasumi-7 cells and 17% in the data set on Daudi cells. The “cell survival rate (% of control) PBMC” value in data set [1] (setting [2]) is recorded as 103 % of control. The inhibition at 10 µg/mL in the data set with TNF-α production was 96%.

With `CC(Oc1cscc1-c1cn(C2CCC(=O)NC2=O)nn1)c1ccccc1` (stereo not drawn) [compound 44, 3-{4-[4-(1-phenylethoxy)thiophen-3-yl]-1H-1,2,3-triazol-1-yl}piperidine-2,6-dione], the results for the viability at 10 µM in the data set with Kasumi-7 cells and with Daudi cells were 40% and 41%, respectively. Moreover, the “cell survival rate (% of control) PBMC” value in data set [1] (setting [2]) is given as 105 % of control. Further, the inhibition at 10 µg/mL in the data set on TNF-α production came to 79%.

In the case of `O=C1CCC(n2cc(-c3csc(CO)c3)nn2)C(=O)N1` (stereo not drawn) [compound 9, 3-{4-[5-(hydroxymethyl)thiophen-3-yl]-1H-1,2,3-triazol-1-yl}piperidine-2,6-dione], the figures for the viability at 10 µM in the data set with Kasumi-7 cells and in the data set with Daudi cells were 90% and 83%, respectively. Moreover, the “cell survival rate (% of control) PBMC” value in data set [1] (setting [2]) is on record as 129 % of control. Further, the inhibition at 10 µg/mL with TNF-α production stood at 41%.

As to `O=C1CCC(n2cc(-c3cscc3OCc3ccccn3)nn2)C(=O)N1` (stereo not drawn) [compound 34, 3-{4-[4-(pyridin-2-ylmethoxy)thiophen-3-yl]-1H-1,2,3-triazol-1-yl}piperidine-2,6-dione], the values for the viability at 10 µM with Kasumi-7 cells and in the data set with Daudi cells were 45% and 48%, respectively. Moreover, in data set [1] (setting [2]), the “cell survival rate (% of control) PBMC” value is 95 % of control. The inhibition at 10 µg/mL in the data set with TNF-α production was 97%.

As for `O=C1CCC(n2cc(-c3cscc3OCc3cccc(CN4CCOCC4)c3)nn2)C(=O)N1` (stereo not drawn) [compound 39, 3-(4-{4-[3-(morpholinomethyl)benzyloxy]thiophen-3-yl}-1H-1,2,3-triazol-1-yl)piperidine-2,6-dione], the viability at 10 µM in the data set with Kasumi-7 cells came to 36%; with Daudi cells, 30%. Besides, the “cell survival rate (% of control) PBMC” value in data set [1] (setting [2]) is listed as 98 % of control. In the data set with TNF-α production, the inhibition at 10 µg/mL amounted to 81%.

On to `COc1sccc1-c1cn(C2CCC(=O)NC2=O)nn1` (stereo not drawn) [compound 18, 3-[4-(2-methoxythiophen-3-yl)-1H-1,2,3-triazol-1-yl]piperidine-2,6-dione], for which the viability at 10 µM in the data set with Kasumi-7 cells was 52%; in the data set on Daudi cells it was 51%. Also, the “cell survival rate (% of control) PBMC” value in data set [1] (setting [2]) is listed as 53 % of control. Moreover, in the data set with TNF-α production, the inhibition at 10 µg/mL came to 100%.

The values above are taken from US11299485B2, “Thiophene derivative and use thereof” (FUJIMOTO CO., LTD., priority 2018, dated 2022).
